Test results reported in PMC2730022 (Journal of medicinal chemistry, 2009).

Legend:
KB cells = test: Protection from growth inhibition by nucleosides and AICA in KB cells; format: cell-based, human
FRα = details: RT16 cells; folic acid = 1; cited from earlier work
FRβ = details: D4 cells; folic acid = 1; cited from earlier work

Row | SMILES | Growth in the presence of AICA at higher concentrations (KB cells; AICA 320 μM, compound above 100 nM) | Protection by AICA from toxicity at low and medium concentrations (KB cells; AICA 320 μM, compound ≤ 50 nM) | Protection by adenosine from growth inhibitory effects (KB cells; adenosine 60 μM) | Effect of thymidine on growth inhibitory effects (KB cells; thymidine 10 μM) | Relative binding affinity for FRα (FRα) | Relative binding affinity for FRβ (FRβ)
1 | Nc1nc2sc(CCCCc3ccc(C(=O)N[C@@H](CCC(=O)O)C(=O)O)cc3)cc2c(=O)[nH]1 [Compound 4, N-{4-[4-(2-amino-4-oxo-3,4-dihydrothieno[2,3-d]pyrimidin-6-yl)butyl]benzoyl}-L-glutamic acid] | still significantly inhibited | almost completely protected | completely protective | did not alter | – | –
2 | Nc1nc2c(c(=O)[nH]1)N(C=O)C(CNc1ccc(C(=O)N[C@@H](CCC(=O)O)C(=O)O)cc1)CN2 (stereo partly drawn) [LCV, (6R,S) 5-formyl tetrahydrofolate] | – | – | – | – | 0.25-0.45 | < 0.01
